Reference: ChEMBL document CHEMBL3639083, “6,7-unsaturated-7-carbamoyl substituted morphinan derivative” (2013)

Key:
[1] = molecular target: Mu-type opioid receptor (Rattus norvegicus, UniProt P33535); experiment: (§1) Binding Assay: Binding assay of opioid receptor.
[2] = molecular target: Delta-type opioid receptor (Rattus norvegicus, UniProt P33533); experiment: as §1
Sequence of Delta-type opioid receptor (P33533 whole entry): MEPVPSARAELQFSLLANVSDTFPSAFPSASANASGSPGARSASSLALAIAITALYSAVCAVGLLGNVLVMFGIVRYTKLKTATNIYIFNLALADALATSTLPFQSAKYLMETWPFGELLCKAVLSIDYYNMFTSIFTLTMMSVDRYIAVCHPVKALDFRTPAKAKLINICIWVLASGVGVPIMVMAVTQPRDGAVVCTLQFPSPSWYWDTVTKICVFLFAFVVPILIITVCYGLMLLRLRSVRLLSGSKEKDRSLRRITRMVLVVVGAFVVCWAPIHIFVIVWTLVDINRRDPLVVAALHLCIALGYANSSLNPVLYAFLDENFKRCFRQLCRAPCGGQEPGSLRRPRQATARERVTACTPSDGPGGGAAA

Sequence of Mu-type opioid receptor (P33535 whole entry): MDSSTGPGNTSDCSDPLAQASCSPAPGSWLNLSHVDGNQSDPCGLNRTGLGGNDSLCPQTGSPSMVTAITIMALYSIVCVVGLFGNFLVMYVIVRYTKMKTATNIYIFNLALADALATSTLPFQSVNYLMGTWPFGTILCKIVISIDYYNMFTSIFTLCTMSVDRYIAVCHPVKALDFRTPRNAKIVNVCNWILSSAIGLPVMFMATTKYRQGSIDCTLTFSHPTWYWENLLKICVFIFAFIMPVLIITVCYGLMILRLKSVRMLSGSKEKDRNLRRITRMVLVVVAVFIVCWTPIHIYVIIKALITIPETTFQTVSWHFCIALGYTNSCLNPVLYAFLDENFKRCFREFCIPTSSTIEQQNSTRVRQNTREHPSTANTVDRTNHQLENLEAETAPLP

| SMILES | Ki [1] [nM] | Ki [2] [nM] |
| --- | --- | --- |
| COc1ccc(NC(=O)C2=C(O)[C@@H]3Oc4c(O)ccc5c4[C@@]34CCN(CC3CC3)[C@H](C5)[C@]4(O)C2)cn1 | 2.29 | 27.6 |
| CC(C)NC(=O)C1=C(NS(=O)(=O)c2ccc(Cl)cc2)[C@@H]2Oc3c(O)ccc4c3[C@@]23CCN(CC2CC2)[C@H](C4)[C@]3(O)C1 | 11 | 0.56 |
